In ChEMBL document CHEMBL1156829 (Proc Natl Acad Sci U S A, 2008):
pEC50: −log10 of the molar value.

How the values were obtained:
[1] = NOVARTIS: Cytotoxicity against human hepatocellular carcinoma cell line (Huh7); assay type: toxicity, cell-based, Huh-7; conditions: Huh7 cells (hepatocellular carcinoma cell line)
Plasmodium falciparum [2] = assay: NOVARTIS: Inhibition of Plasmodium falciparum W2 (drug-resistant) proliferation in erythrocyte-based infection assay; assay type: functional, organism-based; conditions: Plasmodium falciparum, W2; read-out: EC50
Plasmodium falciparum [3] = assay: NOVARTIS: Inhibition of Plasmodium falciparum 3D7 (drug-susceptible) proliferation in erythrocyte-based infection assay; assay type: functional, organism-based; conditions: Plasmodium falciparum, 3D7

Row | SMILES | CC50 [1] [µM] | pEC50 (Plasmodium falciparum [2]) | pEC50 (Plasmodium falciparum [3])
1 | O=C(CCl)Nc1ccc(N2CCCCCC2)cc1 | 19.7 | 5.88 | 5.90
2 | Cc1ccn2c(NC(C)(C)CC(C)(C)C)c(-c3ccccc3OC(=O)CCCCl)nc2c1 | > 10 | 7.70 | 6.12
3 | CCN1C=CC(=Cc2ccc3ccccc3[n+]2C)C=C1 | 20 | 6.01 | 6.34
4 | CN1C[C@@H](CSc2ccccn2)C=C2c3cccc4[nH]cc(c34)C[C@H]21 | > 10 | 6.41 | 6.65
5 | CCCCC(CC)C(=O)N1CCN(C(C)c2nc3ccc(Cl)cc3c(=O)n2C)CC1 (stereo not given) | > 10 | 5.74 | < 5.83
6 | Nc1nc(N)c2c(OCc3ccc(C(F)(F)F)cc3)cccc2n1 | > 10 | 6.01 | 6.11
7 | Oc1ccc(-c2ccc(F)cc2)cc1CNC1CCCCC1 | 17.4 | 8.20 | 7.40
8 | COc1ccc(CNC2CCN(Cc3ccccc3)CC2)cc1OCc1ccccc1 | > 10 | 7.55 | 5.99
9 | Cc1ccccc1N1C(=O)C2C3c4ccccc4C(C(=O)O)(c4ccccc43)C2C1=O (stereo not given) | > 100 | 5.66 | < 4.90
10 | O=c1ccc2cc(Cl)c(O)c(Cl)c2o1 | > 10 | < 6.63 | < 5.90
11 | CC(C)OCCCNc1sc(S(=O)(=O)c2ccccc2)nc1S(=O)(=O)c1ccc(Cl)cc1 | > 100 | 7.24 | 7.03
12 | CN(C)CCCNc1ccnc2cc(Cl)ccc12 | > 10 | 7.12 | 7.11
13 | CCn1c(CNc2ccc(Cl)cc2)nnc1SCC(=O)Nc1cccc(C)c1C | > 10 | 7.57 | < 5.90
14 | CC(Cl)=CC[N+]1(CC#Cc2cccc3ccccc23)CCOCC1 | > 100 | 6.00 | 5.94
15 | CCCOC(=O)C1=C(C)NC2=C(C(=O)CC(c3ccc(OC)c(OC)c3)C2)C1c1ccccc1Cl (stereo not given) | > 100 | 7.35 | 7.18
16 | O=C(Cc1c(F)cccc1Cl)Nc1cc(C(=O)N2CCN(Cc3ccccc3)CC2)ccc1N1CC2CC(C1)c1cccc(=O)n1C2 (stereo not given) | > 100 | 7.52 | 7.17
17 | CCOC(=O)c1c(NC(C)=O)sc2c1CCN(C(C)C)C2 | > 100 | 5.47 | 5.81
18 | CCN1C(C)=C(C)S/C1=C\c1ccc2cc(C)ccc2[n+]1C | 5.72 | 6.77 | 6.64

Row | SMILES | CC50 [1] [µM] | pEC50 (Plasmodium falciparum [2]) | pEC50 (Plasmodium falciparum [3])
19 | O=C(NCCCNC(=O)Nc1cccc(C2=NCCN2)c1)Nc1cccc(C2=NCCN2)c1 | > 10 | 6.59 | 6.49
20 | COc1ccc(C=NNc2cc(C)nc3ccccc23)cc1 | 18.9 | 6.68 | 6.64
21 | CC(C)CC(NC(=O)C(=Cc1ccco1)NC(=O)c1ccccc1)C(=O)OCc1ccccc1 (stereo not given) | > 100 | 5.76 | < 4.90
22 | CCOc1ccc2nc(C)cc(Nc3ccc(OCc4ccccc4Cl)cc3)c2c1 | 5.84 | 6.45 | 6.85
23 | N=c1c2c(n(Cc3ccccc3)c3c1CCC3)CCC2 | 41.2 | 6.48 | 6.55
24 | Cc1cc(NS(=O)(=O)c2ccc(N=Cc3ccc(C#N)cc3)cc2)no1 | > 10 | < 6.24 | < 5.79
25 | C[n+]1c(/C=C\c2ccc(F)cc2)ccc2ccccc21 | > 10 | 7.85 | 6.56
26 | COc1cc(OC)cc(N2C(=O)N(Cc3ccc(C(C)(C)C)cc3)c3ccccc3S2(=O)=O)c1 | > 100 | 5.20 | 5.43
27 | O=C(NC(=S)Nc1ccc([N+](=O)[O-])cc1Cl)c1ccco1 | > 10 | < 6.11 | < 5.82
28 | O=C(NN=Cc1ccncc1)c1cc(-c2cccc([N+](=O)[O-])c2)[nH]n1 | > 100 | 5.67 | < 5.09
29 | N#Cc1c(N)nc(SCC(=O)c2ccc(Cl)cc2)c(C#N)c1-c1ccco1 | > 100 | 6.23 | 5.64
30 | Cc1[nH]c(=O)[nH]c(=O)c1S(=O)(=O)Nc1ccc2oc(-c3ccncc3)nc2c1 | > 100 | < 5.00 | < 5.00
31 | COc1ccccc1NC1=CC(=NS(=O)(=O)c2ccccc2)c2ccccc2C1=O | 13.6 | 6.54 | 6.65
32 | CCOc1c(Cl)cc(CNC(C)C(O)c2ccccc2)cc1OC (stereo not given) | > 10 | 6.37 | 5.78
33 | CCc1noc(C)c1C(=O)NCCN1Cc2ccccc2OC(c2ccsc2)C1 (stereo not given) | > 100 | 6.21 | 6.08
34 | CCN1CCN(c2cc(C)c3cc(NC(=O)/C=C/c4cccc(Cl)c4)ccc3n2)CC1 | > 13.8 | 5.99 | 6.03
35 | COc1cc(-c2nc(-c3ccc(Sc4ccccc4)cc3)c(-c3ccccc3)[nH]2)cc(OC)c1O | 64.3 | 5.79 | 5.89
